Here are results for 1 compound from patent US9808438B2, “Method for treating mucositis” (ENZYCHEM LIFESCIENCES CORPORATION, priority 2015, dated 2017).

Structures are written as SMILES. Values joined by “and” are separate entries in the source; they are usually repeats but may differ in a detail not shown here. Identical values can stand only once.

In one data set the test system is sepsis animal model. The note with it: cecal-ligation-puncture sepsis model; cited from earlier work.
For data set [1], the system named is recurrent oral ulceration (ROU). The data set can be described thus: In vivo effect of PLAG on recurrent oral ulceration in patients, self-reported scoring system. On the set-up: species or system human. The text has this:
Total 44 patients with recurrent oral ulceration (ROU) between 20 and 80 years old (34 female patients and 10 male patients, Disease; RAS ([…]), BD (27 patients), SLE (1 patient), Mean age: 49.3±9.0) were enrolled in the study. The diagnosis of ROU was made based upon the history and the physical examination on oral mucosa by physicians. We included three conditions with recurrent oral ulceration: Recurrent aphthous stomatitis (RAS), Behcet's disease (BD), Systemic lupus erythematosus (SLE). After completing baseline assessments, 250 mg of PLAG was administered to the patients orally twice a day (250 mg PLAG per tablet, 500 mg/day) for 2-4 weeks. The change of recurrent oral ulcer in the patients was evaluated at 2 or 4 weeks after the treatment by using self-reported scoring system (total 12 points), including the following three measurements: change of ulcer frequency (Likert 0-4), Change of ulcer severity: pain & size (Likert 0-4) and Change of ulcer duration (Likert 0-4).

For data set [2] the following is noted: GLP toxicity test; cited from earlier work.
Data set [3] concerns hematopoietic stem cells and megakaryocytes. The following applies: cited from earlier work.
The mark [4] stands for this setting: 44 patients, relation to PLAG cannot be excluded.
Where [5] appears, read: average of 44 patients, 500 mg/day orally, 2-4 weeks.

As for `CCCCC/C=C\C/C=C\CCCCCCCC(=O)OC(COC(C)=O)COC(=O)CCCCCCCCCCCCCCC` (stereo not shown) [PLAG, 1-palmitoyl-2-linoleoyl-3-acetylglycerol], in the data set with sepsis animal model, the “survivability ratio of animals” value is on record as “increases survivability ratio of animals”. Moreover, the “side effect of PLAG” value in data set [1] (44 patients, 500 mg/day orally, 2-4 weeks) is “any clear side effect of PLAG was not identified”. For the same compound, in data set [1] (setting [4]), the “patients with mild dyspepsia” value is listed as “two”, the “patients with mild skin rash” value was “one” and the “patients with mild taste change (metallic taste)” value was “one”. Moreover, the “effect on symptoms of oral ulceration” value in data set [1] (administration of PLAG to the patients) is on record as “significantly improves the symptoms of oral ulceration”. Moreover, in data set [1] (setting [5]), the “change of ulcer duration (Likert 0-4), average” value is 1.86±0.72 and 1.86; the “change of ulcer frequency (Likert 0-4), average” value is 2.07±0.55 and 2.07; the “change of ulcer severity: pain & size (Likert 0-4), average” value was 2.13±0.68 and 2.14; the “total (sum of the three scores), average” value is 5.93±1.76 points and 5.93 points. The significant improvement in data set [1] (individual patient, 1 or 0 from sum of the three scores) is reported as 1 (considered to be significantly improved when the sum of the three scores was more than 5 points). Also, the toxicity result in data set [2] is recorded as “no toxicity”. Further, the growth-stimulating activities result in data set [3] was “have growth-stimulating activities of hematopoietic stem cells and megakaryocytes”.
